Experimental data reported in ChEMBL document CHEMBL3085731, “Novel water-soluble prodrugs of acyclovir cleavable by the dipeptidyl-peptidase IV (DPP IV/CD26) enzyme” (Eur J Med Chem, 2013).
≈ marks a conversion by molar mass, not a printed value. Residues, ends and D or L forms follow the SMILES beside them. *: point of attachment. X1 = O=c1[nH]c(N*)nc2c1ncn2COCCO

How the values were obtained:
[1] = Solubility of the compound in deionized water at pH 5.5 after overnight incubation by HPLC analysis; format: physicochemical
[2] = tested on: Human alphaherpesvirus 1; test: Antiviral activity against thymidine kinase-deficient ACV-resistant Herpes simplex virus 1 KOS infected in HEL cells assessed as inhibition of virus-induced cytopathicity; format: functional, organism-based; conditions: Human alphaherpesvirus 1, KOS
[3] = tested on: Human alphaherpesvirus 2; test: Antiviral activity against Herpes simplex virus 2 G infected in HEL cells assessed as inhibition of virus-induced cytopathicity; format: functional, organism-based; conditions: Human alphaherpesvirus 2, strain G
[4] = Oral bioavailability in human; format: ADME, organism-based; conditions: in vivo
[5] = biological target: T1, Dipeptidyl peptidase 4 (Homo sapiens, UniProt P27487); test: Prodrug conversion assessed as dipeptidyl peptidase 4-mediated ACV formation in human serum at 50 uM after 2 hrs by HPLC analysis; format: ADME
[6] = Prodrug conversion in PBS buffer assessed as ACV formation at 50 uM after 2 hrs by HPLC analysis; format: ADME
[7] = biological target: Dipeptidyl peptidase 4 (Bos taurus, UniProt P81425); test: Prodrug conversion assessed as dipeptidyl peptidase 4-mediated ACV formation in bovine serum at 50 uM after 2 hrs by HPLC analysis; format: ADME; conditions: cattle
[8] = biological target: T1, Dipeptidyl peptidase 4; test: Prodrug conversion assessed as dipeptidyl peptidase 4-mediated ACV formation in human serum at 50 uM after 1 hr by HPLC analysis; format: ADME
[9] = Chemical stability of the compound in sodium phosphate buffer at pH 3.2 after 6 hrs; format: physicochemical; conditions: pH 3.2, 6 h
[10] = biological target: T1, Dipeptidyl peptidase 4; test: Prodrug conversion assessed as dipeptidyl peptidase 4-mediated ACV formation in human serum at 50 uM after 24 hrs by HPLC analysis; format: ADME
[11] = Prodrug conversion in PBS buffer assessed as ACV formation at 50 uM after 24 hrs by HPLC analysis; format: ADME
[12] = tested on: Human alphaherpesvirus 1; test: Antiviral activity against Herpes simplex virus 1 KOS infected in HEL cells assessed as inhibition of virus-induced cytopathicity; format: functional, organism-based; conditions: Human alphaherpesvirus 1, KOS
[13] = biological target: T1, Dipeptidyl peptidase 4; test: Prodrug conversion assessed as human dipeptidyl peptidase 4-mediated Val-ACV formation at 50 uM after 24 hrs by HPLC analysis; format: ADME; conditions: isolated protein

T1 sequence (P27487 whole entry): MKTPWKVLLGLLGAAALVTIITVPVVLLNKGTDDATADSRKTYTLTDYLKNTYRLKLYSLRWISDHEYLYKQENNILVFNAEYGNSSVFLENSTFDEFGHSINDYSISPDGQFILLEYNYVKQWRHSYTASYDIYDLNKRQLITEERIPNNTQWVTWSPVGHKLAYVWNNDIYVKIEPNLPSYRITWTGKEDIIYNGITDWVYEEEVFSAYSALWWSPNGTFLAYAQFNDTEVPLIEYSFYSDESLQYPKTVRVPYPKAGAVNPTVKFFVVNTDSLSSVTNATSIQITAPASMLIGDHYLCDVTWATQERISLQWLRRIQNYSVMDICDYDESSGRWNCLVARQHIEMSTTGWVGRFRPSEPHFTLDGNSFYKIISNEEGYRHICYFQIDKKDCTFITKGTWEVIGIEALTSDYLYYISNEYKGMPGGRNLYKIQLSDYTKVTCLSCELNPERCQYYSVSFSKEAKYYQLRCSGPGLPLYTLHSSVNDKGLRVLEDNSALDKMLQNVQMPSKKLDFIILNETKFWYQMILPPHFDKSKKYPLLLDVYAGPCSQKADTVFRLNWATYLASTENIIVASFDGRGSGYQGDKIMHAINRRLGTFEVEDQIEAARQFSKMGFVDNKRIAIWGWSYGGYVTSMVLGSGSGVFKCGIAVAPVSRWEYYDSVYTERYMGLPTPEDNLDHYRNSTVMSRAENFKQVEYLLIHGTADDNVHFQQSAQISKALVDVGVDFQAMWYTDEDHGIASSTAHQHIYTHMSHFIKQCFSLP
Chain of Dipeptidyl peptidase 4 (Bos taurus, UniProt P81425) (P81425 whole entry): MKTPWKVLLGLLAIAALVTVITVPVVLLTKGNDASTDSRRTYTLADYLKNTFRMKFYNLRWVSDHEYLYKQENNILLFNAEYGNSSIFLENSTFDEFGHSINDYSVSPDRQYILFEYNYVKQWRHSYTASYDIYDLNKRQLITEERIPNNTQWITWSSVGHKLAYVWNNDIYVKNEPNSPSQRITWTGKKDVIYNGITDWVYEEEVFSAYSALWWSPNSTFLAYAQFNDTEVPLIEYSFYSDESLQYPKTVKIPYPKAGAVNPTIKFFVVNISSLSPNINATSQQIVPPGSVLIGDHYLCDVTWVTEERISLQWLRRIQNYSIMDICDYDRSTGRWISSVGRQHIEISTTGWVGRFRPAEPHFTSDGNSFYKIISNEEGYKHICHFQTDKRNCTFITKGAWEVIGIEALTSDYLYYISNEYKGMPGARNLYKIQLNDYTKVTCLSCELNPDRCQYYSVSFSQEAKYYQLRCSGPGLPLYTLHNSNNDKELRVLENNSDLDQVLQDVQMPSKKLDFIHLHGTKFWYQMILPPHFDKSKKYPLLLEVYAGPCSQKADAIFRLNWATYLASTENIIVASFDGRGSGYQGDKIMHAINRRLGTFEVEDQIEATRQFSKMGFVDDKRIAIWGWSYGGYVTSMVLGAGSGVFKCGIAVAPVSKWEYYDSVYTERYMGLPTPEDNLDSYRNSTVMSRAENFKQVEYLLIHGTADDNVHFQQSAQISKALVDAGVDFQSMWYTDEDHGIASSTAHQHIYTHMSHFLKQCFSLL

| Compound | solubility [1] | EC50 [2] | EC50 [3] | bioavailability [4] | Drug metabolism [5] | Drug metabolism [6] | Drug metabolism [7] | Drug metabolism [8] | Stability [9] | Drug metabolism [10] | Drug metabolism [11] | EC50 [12] | Drug metabolism [13] |
| --- | --- | --- | --- | --- | --- | --- | --- | --- | --- | --- | --- | --- | --- |
| Nc1nc2c(ncn2COCCO)c(=O)[nH]1 [ACYCLOVIR] | 1.29 mg/mL (≈ 5.73 mM) | 18 µM | 0.5 µM | 10% |  |  |  |  |  |  |  |  |  |
| CC(C)[C@H](N)C(=O)OCCOCn1cnc2c(=O)[nH]c(N)nc21 [VALACYCLOVIR] |  |  |  |  | Active | Active | Active |  |  |  |  |  |  |
| CC(C)[C@H](N)C(=O)N1CCC[C@H]1C(=O)N[C@H](C(=O)N1CCC[C@H]1C(=O)Nc1nc2c(ncn2COCCO)c(=O)[nH]1)C(C)C (H-VPVP-X1) | 22.9 mg/mL (≈ 37 mM) | 73 µM | 4.9 µM |  |  |  |  | Active | Stable | Active | Active | 1.8 µM |  |
| CC(C)[C@H](N)C(=O)N1CCC[C@H]1C(=O)N[C@H](C(=O)OCCOCn1cnc2c(=O)[nH]c(N)nc21)C(C)C | 12.2 mg/mL (≈ 23.4 mM) | 32 µM | 1.6 µM |  |  |  |  |  | Stable |  | Not Active | 0.6 µM | Active |
